The test system of the assay is LTB4 production in human blood. Kind of assay: Inhibition of Calcium Ionophore-Induced LTB4 Production in Human Blood (HWB). As to conditions: human whole blood, A23187 20 mcg/ml, read-out: Inhibition of Calcium Ionophore-Induced LTB4 Production in Human Blood IC50 HWB. It is filed as cell-based. On the procedure: One or more concentrations of the leukotriene A4 hydrolass inhibitor compounds being tested were prepared (diluted in DMSO) and 2 μl added and gently mixed with the diluted whole blood. After incubating for 15 minutes at 37° C. in a humidified incubator, calcium ionophore A23187 (Sigma Chemical Co., St. Louis, Mo.) was added to a final concentration of 20 mcg/ml and the incubation continued under the same conditions for an additional 10 minutes to allow LTB4 formation. The reaction was terminated by centrifugation (833 g, 10 minutes at 4° C.) and supernatant were analyzed for LTB4 and thromboxane by commercially available enzyme-linked immunoassays (Caymen Chemical Co., Ann Arbor, Mich.) according to the manufacturer's instructions. The IC50 of each test compound was determined from the amount of inhibition of LTB4 production as compared to an essentially identical assay in which no inhibitor compound was present.

The results in this text go back to patent US5585492A, “LTA4 Hydrolase inhibitors” (priority 1994, dated 1996).

Where two headings read alike, the source gives them in different places.

Consider `C[C@@H]1C[C@H](C(N)=O)CCN1CCOc1ccc(Cc2ccccc2)cc1` (relative stereo) [Example 297], for which the 50% inhibitory concentration (IC50) (Homo sapiens) was found to be 359 nM.

For the compound `CCOC(=O)[C@@H]1CCN(CCOc2ccc(Cc3ccccc3)cc2)[C@H](C)C1` (relative stereo) [Example 298], the IC50 (Homo sapiens) turned out to be 758 nM.

Regarding `C[C@H]1C[C@@H](O)CCN1CCOc1ccc(Cc2ccccc2)cc1` (relative stereo) [Example 465], for the setting “Homo sapiens”, the IC50 came to 470 nM. On to `CC(=O)N[C@@H]1CCN(CCOc2ccc(Cc3ccccc3)cc2)[C@@H](C)C1` (relative stereo) [Example 467], for which the half-inhibitory concentration (IC50) (Homo sapiens) was found to be 226 nM. The same measure, in the same setting: as for `Fc1ccc(Oc2ccc(OCCN3CCCC3)cc2)cc1` [Example 48], the figure is 390 nM.

As for `c1ccc(Oc2ccc(OCCN3CCCC3)nc2)cc1` [Example 65], the 50% inhibitory concentration (IC50) (Homo sapiens) was 510 nM.

For `[O-][S+](CCN1CCCC1)c1ccc(Cc2ccccc2)cc1` (stereo not shown) [Example 69], under “Homo sapiens”, the IC50 was determined as 11800 nM. Consider `c1ccc(Oc2ccc(NCCN3CCCC3)cc2)cc1` [Example 71], for which, under “Homo sapiens”, the IC50 stood at 4260 nM. Consider `Clc1cc(OCCN2CCCC2)ccc1Cc1ccccc1` [Example 114], for which, for the setting “Homo sapiens”, the IC50 is 16000 nM.

In the case of `Cc1cc(Cc2ccccc2)ccc1OCCN1CCCC1` [Example 117], the IC50 (Homo sapiens) turned out to be 4150 nM. For `c1cc(OCCN2CCCC2)ccc1Cc1ccc2c(c1)OCO2` [Example 130], the IC50 (Homo sapiens) came to 1010 nM. As for `c1ccc2nc(Cc3ccc(OCCN4CCCC4)cc3)ccc2c1` [Example 131], for the setting “Homo sapiens”, the IC50 amounted to 25000 nM. The same measure, in the same setting: as for `c1ccc2ncc(Cc3ccc(OCCN4CCCC4)cc3)cc2c1` [Example 132], the figure is 500 nM; as for `c1csc(Cc2ccc(OCCN3CCCC3)cc2)c1` [Example 133], 43 nM; as for `Oc1ccc(Cc2ccc(OCCN3CCCC3)cc2)cc1` [Example 137], 80 nM.

Turning to `c1ccc(Cc2ccc(OCCN3CCCC3)cc2)nc1` [Example 138], the concentration for half-maximal inhibition (IC50) (Homo sapiens) was found to be 520 nM.

As to `Fc1ccc(Cc2ccc(OCCN3CCCC3)cc2)cc1` [Example 139], the half-inhibitory concentration (IC50) (Homo sapiens) worked out at 580 nM. Same read-out and setting: as for `Fc1ccccc1Cc1ccc(OCCN2CCCC2)cc1` [Example 141], the figure is 280 nM. For `Fc1cccc(Cc2ccc(OCCN3CCCC3)cc2)c1` [Example 142], the IC50 (Homo sapiens) amounted to 100 nM. As to `Clc1cccc(Cc2ccc(OCCN3CCCC3)cc2)c1` [Example 143], the IC50 (Homo sapiens) came out at 290 nM.

As for `COc1ccc(Cc2ccc(OCCN3CCCC3)cc2)cc1F` [Example 144], the IC50 (Homo sapiens) worked out at 900 nM. For the compound `NC(=O)C1CCN(CCOc2ccc(Cc3ccccc3)cn2)CC1` [Example 147], under “Homo sapiens”, the IC50 was determined as 730 nM. As to `c1ccc2cc(COc3ccc(OCCN4CCCC4)cc3)ccc2c1` [Example 200], under “Homo sapiens”, the IC50 came to 1900 nM. On to `c1ccc2ncc(COc3ccc(OCCN4CCCC4)cc3)cc2c1` [Example 201], for which the IC50 (Homo sapiens) was found to be 1750 nM. Take `Brc1ccc(COc2ccc(OCCN3CCCC3)cc2)cc1` [Example 203]: the IC50 (Homo sapiens) came to 3300 nM.

As for `Fc1ccc(COc2ccc(OCCN3CCCC3)cc2)cc1` [Example 205], the IC50 (Homo sapiens) turned out to be 1150 nM.

`Fc1ccccc1COc1ccc(OCCN2CCCC2)cc1` [Example 207]: the half-inhibitory concentration (IC50) (Homo sapiens) came out at 640 nM. As to `Clc1ccccc1COc1ccc(OCCN2CCCC2)cc1` [Example 208], the half-inhibitory concentration (IC50) (Homo sapiens) came out at 2150 nM. With `FC(F)(F)c1cccc(COc2ccc(OCCN3CCCC3)cc2)c1` [Example 209], the IC50 (Homo sapiens) was found to be 2340 nM. In the case of `Fc1cccc(COc2ccc(OCCN3CCCC3)cc2)c1` [Example 211], where the note is “Homo sapiens”, the IC50 was found to be 620 nM. On to `Cc1ccc(COc2ccc(OCCN3CCCC3)cc2)cc1` [Example 212], for which, for the setting “Homo sapiens”, the IC50 is 3280 nM. Consider `COc1ccc(COc2ccc(OCCN3CCCC3)cc2)cc1` [Example 213], for which the IC50 (Homo sapiens) amounted to 4650 nM.

For the compound `c1ccc2c(COc3ccc(OCCN4CCCC4)cc3)cccc2c1` [Example 214], for the setting “Homo sapiens”, the IC50 is 10000 nM. For `c1csc(COc2ccc(OCCN3CCCC3)cc2)c1` [Example 215], the IC50 (Homo sapiens) amounted to 190 nM.

Take `NC(=O)C1CCN(CCOc2ccc(Cc3cccs3)cc2)CC1` [Example 229]: the IC50 (Homo sapiens) was found to be 220 nM.

In the case of `NC(=O)C1CCN(CCOc2ccc(Cc3ccsc3)cc2)CC1` [Example 230], where the note is “Homo sapiens”, the IC50 turned out to be 284 nM. On to `COc1ccc(Cc2ccc(OCCN3CCC(C(N)=O)CC3)cc2)cc1` [Example 232], for which the IC50 (Homo sapiens) came to 10000 nM. On to `NC(=O)C1CCN(CCOc2ccc(Cc3cccc(F)c3)cc2)CC1` [Example 233], for which the IC50 (Homo sapiens) stood at 490 nM. The same measure, in the same setting: as for `c1ccc(Cc2ccc(OCCNC3CCCCC3)cc2)cc1` [Example 240], the figure is 2450 nM. Turning to `c1ccc(Cc2ccc(OCCNC3CCCC3)cc2)cc1` [Example 241], where the note is “Homo sapiens”, the IC50 was 630 nM.

On to `NC(=O)C1CCCN(CCOc2ccc(Cc3ccccc3)cc2)C1` (stereo not shown) [Example 243], for which the IC50 (Homo sapiens) was found to be 650 nM.

Consider `OC1CCN(CCOc2ccc(Cc3ccccc3)cc2)CC1` [Example 247], for which the IC50 (Homo sapiens) stood at 200 nM. Take `CCOC(=O)CCNC(=O)C1CCN(CCOc2ccc(Cc3ccccc3)cc2)CC1` [Example 249]: the IC50 (Homo sapiens) was 429 nM.

`NC(=O)C1CCN(CCOc2ccc(Oc3ccccc3)cc2)CC1` [Example 252]: for the setting “Homo sapiens”, the IC50 came to 127 nM.

`NC(=O)C1CCCN(CCOc2ccc(Oc3ccccc3)cc2)C1` (stereo not shown) [Example 253]: the IC50 (Homo sapiens) was found to be 490 nM. As for `CCOC(=O)C1CCN(CCOc2ccc(Oc3ccccc3)cc2)CC1` [Example 254], the IC50 (Homo sapiens) was determined as 1260 nM. As for `CNC(=O)C1CCN(CCOc2ccc(Oc3ccccc3)cc2)CC1` [Example 255], the IC50 (Homo sapiens) was found to be 608 nM. As to `CC(=O)NC1CCN(CCOc2ccc(Cc3ccccc3)cc2)C1` (stereo not shown) [Example 256], the IC50 is 420 nM.

For the compound `O=C(OCc1ccccc1)C1CCCN1CCCOc1ccc(Cc2ccccc2)cc1` (stereo not shown) [Example 258], for the setting “Homo sapiens”, the IC50 worked out at 1440 nM.

For `c1ccc(Cc2ccc(OCCCN3CCCC3)cc2)cc1` [Example 259], the IC50 (Homo sapiens) turned out to be 440 nM. Still for that read-out and setting: as for `COC(=O)C1CN(CCCOc2ccc(Cc3ccccc3)cc2)CCC1=O` (stereo not shown) [Example 262], the figure is 2480 nM; as for `CC(C)(C)OC(=O)C1CCN(CCCOc2ccc(Cc3ccccc3)cc2)CC1` [Example 263], 8760 nM; as for `CCOC(=O)CCNCCCOc1ccc(Cc2ccccc2)cc1` [Example 265], 450 nM.

With `O=C(CCNCCOc1ccc(Cc2ccccc2)cc1)OCc1ccccc1` [Example 266], the IC50 (Homo sapiens) came to 2640 nM. On to `COC(=O)CCNCCCOc1ccc(Cc2ccccc2)cc1` [Example 267], for which the IC50 (Homo sapiens) turned out to be 580 nM. Regarding `CCOC(=O)C1CCCN(CCCOc2ccc(Cc3ccccc3)cc2)C1` (stereo not shown) [Example 269], under “Homo sapiens”, the IC50 is 1180 nM. The same measure, in the same setting: as for `O=C(CCNCCCCOc1ccc(Cc2ccccc2)cc1)OCc1ccccc1` [Example 273], the figure is 154 nM; as for `CCOC(=O)CCNCCCCCOc1ccc(Cc2ccccc2)cc1` [Example 274], 1250 nM; as for `c1ccc(Cc2ccc3c(c2)CC(CN2CCCC2)O3)cc1` (stereo not shown) [Example 280], 21 nM. With `NC(=O)C1CCN(CC2Cc3cc(Cc4ccccc4)ccc3O2)CC1` (stereo not shown) [Example 281], the IC50 (Homo sapiens) is 167 nM.

As to `CCOC(=O)C1CCN(CC2Cc3cc(Cc4ccccc4)ccc3O2)CC1` (stereo not shown) [Example 282], the IC50 (Homo sapiens) is 1370 nM.

As to `c1ccc(Cc2cnc3c(c2)CC(CN2CCCC2)O3)cc1` (stereo not shown) [Example 287], under “Homo sapiens”, the half-maximal inhibitory concentration (IC50) is 2390 nM. In the case of `NC(=O)C1CCN(CC2Cc3cc(Cc4ccccc4)cnc3O2)CC1` (stereo not shown) [Example 288], the IC50 (Homo sapiens) came to 960 nM.

In the case of `c1ccc(Oc2ccc3c(c2)CC(CN2CCCC2)O3)cc1` (stereo not shown) [Example 289], the IC50 (Homo sapiens) amounted to 316 nM.

By IC50 is commonly meant the concentration at which inhibition is half-maximal.
